The target in assay [1] is T1, Fatty acid-binding protein, adipocyte (Mus musculus) (UniProt P04117).
T1 sequence (whole entry): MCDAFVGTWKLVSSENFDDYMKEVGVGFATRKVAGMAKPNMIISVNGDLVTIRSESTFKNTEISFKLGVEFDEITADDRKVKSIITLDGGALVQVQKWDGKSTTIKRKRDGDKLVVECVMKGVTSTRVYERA
Kind of assay: Inhibition of FABP4 in mouse RAW264.7 cells assessed as inhibition of LPS-induced TNFalpha production after 24 hrs by ELISA. In kind it is cell-based. For orientation: An ELISA detects its analyte on a solid surface through an enzyme-linked reagent.

Assay [2] concerns the target T1, Fatty acid-binding protein, adipocyte (Mus musculus). Description: Inhibition of FABP4 in mouse RAW264.7 cells assessed as inhibition of LPS-induced TNFalpha expression after 24 hrs by qPCR method. It is filed as cell-based. For orientation: Real-time PCR tracks product formation cycle by cycle.
Assay [3] has the same target. Description: Inhibition of FABP4 in mouse RAW264.7 cells assessed as inhibition of LPS-induced IL-6 expression after 24 hrs by qPCR method. It is filed as cell-based.
Assay [4] concerns the target T2, Fatty acid-binding protein, liver (Homo sapiens) (UniProt P07148).
T2 sequence (whole entry): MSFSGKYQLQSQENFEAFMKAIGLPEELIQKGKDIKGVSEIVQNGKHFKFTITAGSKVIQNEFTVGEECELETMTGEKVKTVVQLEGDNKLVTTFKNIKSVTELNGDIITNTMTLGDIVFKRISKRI
Kind of assay: Displacement of 1,8-ANS from His6-tagged FABP1 (unknown origin) expressed in Escherichia coli BL21(DE3) cells at 25 uM by fluorescence assay relative to control.

The target in assay [5] is T3, Fatty acid-binding protein, intestinal (Homo sapiens) (UniProt P12104).
T3 sequence (whole entry): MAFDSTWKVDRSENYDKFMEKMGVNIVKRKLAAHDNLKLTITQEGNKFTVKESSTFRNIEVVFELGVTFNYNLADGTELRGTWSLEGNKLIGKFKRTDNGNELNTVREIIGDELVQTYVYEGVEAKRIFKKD
Kind of assay: Displacement of 1,8-ANS from His6-tagged FABP2 (unknown origin) expressed in Escherichia coli BL21(DE3) cells at 25 uM by fluorescence assay relative to control.

Assay [6] has as its target Fatty acid-binding protein 5 (Homo sapiens) (UniProt Q01469). Description: Displacement of 1,8-ANS from His6-tagged FABP5 (unknown origin) expressed in Escherichia coli BL21(DE3) cells at 25 uM by fluorescence assay relative to control.
Assay [7] concerns the target Fatty acid-binding protein, brain (Homo sapiens) (UniProt O15540). Description: Displacement of 1,8-ANS from His6-tagged FABP7 (unknown origin) expressed in Escherichia coli BL21(DE3) cells at 25 uM by fluorescence assay relative to control.
Assay [8] has as its target Myelin P2 protein (Homo sapiens) (UniProt P02689). Kind of assay: Displacement of 1,8-ANS from His6-tagged FABP8 (unknown origin) expressed in Escherichia coli BL21(DE3) cells at 25 uM by fluorescence assay relative to control.
Assay [9] has as its target T4, Fatty acid-binding protein 9 (Homo sapiens) (UniProt Q0Z7S8).
T4 sequence (whole entry): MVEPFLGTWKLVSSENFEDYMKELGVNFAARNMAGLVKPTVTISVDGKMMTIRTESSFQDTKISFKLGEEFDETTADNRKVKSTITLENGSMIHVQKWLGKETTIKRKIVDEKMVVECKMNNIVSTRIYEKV
Kind of assay: Displacement of 1,8-ANS from His6-tagged FABP9 (unknown origin) expressed in Escherichia coli BL21(DE3) cells at 25 uM by fluorescence assay relative to control.

The target of assay [10] is T5, Fatty acid-binding protein, heart (Homo sapiens, UniProt P05413). Description: Displacement of 1,8-ANS from His6-tagged FABP3 (unknown origin) expressed in Escherichia coli BL21(DE3) cells by fluorescence assay. To be noted: read-out: Ki(app).
Target sequence in this assay (P05413 whole entry): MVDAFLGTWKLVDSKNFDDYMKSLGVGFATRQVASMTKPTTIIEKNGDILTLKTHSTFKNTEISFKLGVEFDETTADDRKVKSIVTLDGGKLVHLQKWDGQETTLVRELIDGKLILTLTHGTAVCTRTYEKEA
The species entered for assay [11] is Homo sapiens. Kind of assay: Displacement of 1,8-ANS from His6-tagged FABP4 (unknown origin) R106A mutant expressed in Escherichia coli BL21(DE3) cells at 25 uM by fluorescence assay relative to control.
The species named for assay [12] is Homo sapiens. Kind of assay: Displacement of 1,8-ANS from His6-tagged FABP4 (unknown origin) R126A mutant expressed in Escherichia coli BL21(DE3) cells at 25 uM by fluorescence assay relative to control.
The target of assay [13] is T6, Fatty acid-binding protein, adipocyte (Homo sapiens, UniProt P15090). Kind of assay: Displacement of 1,8-ANS from His6-tagged FABP4 (unknown origin) expressed in Escherichia coli BL21(DE3) cells at 25 uM by fluorescence assay relative to control.
Target sequence in this assay (P15090 2-132 limits assumed): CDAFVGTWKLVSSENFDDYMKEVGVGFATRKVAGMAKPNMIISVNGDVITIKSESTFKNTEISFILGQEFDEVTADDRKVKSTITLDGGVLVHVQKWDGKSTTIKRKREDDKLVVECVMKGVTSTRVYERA
Assay [14] deals with T6, Fatty acid-binding protein, adipocyte. Description: Displacement of 1,8-ANS from His6-tagged FABP4 (unknown origin) expressed in Escherichia coli BL21(DE3) cells by fluorescence assay. To be noted: read-out: Ki(app).
Target sequence in this assay (P15090 whole entry): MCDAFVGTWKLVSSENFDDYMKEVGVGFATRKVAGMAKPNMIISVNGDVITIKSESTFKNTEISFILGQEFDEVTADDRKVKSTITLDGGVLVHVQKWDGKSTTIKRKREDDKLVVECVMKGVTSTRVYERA
Assay [15] shares this target. Description: Binding affinity to His6-tagged FABP4 (unknown origin) expressed in Escherichia coli BL21(DE3) cells assessed as change in melting temperature at 50 uM after 30 mins by SYPRO orange dye based thermal stability shift assay.
Target sequence in this assay (P15090 2-132 limits assumed): as the sequence (P15090 2-132 limits assumed) above
For assay [16] the target is unchanged. Description: Direct binding to His6-tagged FABP4 (unknown origin) expressed in Escherichia coli BL21(DE3) cells by isothermal titration calorimetry. (In ITC the heat of successive injections is recorded.)
Target sequence in this assay (P15090 whole entry): as the sequence (P15090 whole entry) above
Assay [17] concerns the target T5, Fatty acid-binding protein, heart. To be noted: 25 uM.
Target sequence in this assay (P05413 2-133 limits assumed): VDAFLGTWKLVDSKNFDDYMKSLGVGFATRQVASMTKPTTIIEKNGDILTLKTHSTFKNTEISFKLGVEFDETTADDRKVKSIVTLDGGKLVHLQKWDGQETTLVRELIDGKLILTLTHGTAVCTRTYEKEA
Description: Displacement of 1,8-ANS from His6-tagged FABP3 (unknown origin) expressed in Escherichia coli BL21(DE3) cells at 25 uM by fluorescence assay relative to control
Assay [18] has the same target. To be noted: 50 uM.
Target sequence in this assay (P05413 2-133 limits assumed): as above
Description: Binding affinity to His6-tagged FABP3 (unknown origin) expressed in Escherichia coli BL21(DE3) cells assessed as change in melting temperature at 50 uM after 30 mins by SYPRO orange dye based thermal stability shift assay

Chain of Myelin P2 protein (Homo sapiens) (P02689 whole entry, looked up): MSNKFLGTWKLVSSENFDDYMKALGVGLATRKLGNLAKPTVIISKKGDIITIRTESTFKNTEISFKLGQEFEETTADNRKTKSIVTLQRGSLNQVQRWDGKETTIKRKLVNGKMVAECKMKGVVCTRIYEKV
Chain of Fatty acid-binding protein 5 (Homo sapiens) (Q01469 whole entry): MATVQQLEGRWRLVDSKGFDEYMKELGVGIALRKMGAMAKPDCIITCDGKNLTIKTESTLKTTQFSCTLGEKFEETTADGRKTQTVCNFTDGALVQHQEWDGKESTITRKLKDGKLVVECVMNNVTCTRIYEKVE
Chain of Fatty acid-binding protein, brain (Homo sapiens) (O15540 2-132 limits assumed): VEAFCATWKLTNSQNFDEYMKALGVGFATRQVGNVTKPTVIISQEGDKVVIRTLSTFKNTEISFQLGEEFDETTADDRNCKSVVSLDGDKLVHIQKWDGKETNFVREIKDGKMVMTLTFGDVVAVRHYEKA

A word on the inhibition: it is the change of the read-out against control, counted positive when it falls. For orientation: ΔTm means the change in melting temperature against a reference sample. The term Kd denotes the equilibrium constant for the complex coming apart. Regarding `O=C(O)C1C2CC=CC2c2cc(Br)cc3c2N1CC1CC=CC31` (stereo not drawn), the inhibition result in assay [1] is “Dose-dependent effect”; in assay [2], “Dose-dependent effect”; in [3], “Dose-dependent effect”; in [4], 95.5%; in assay [5], 34.1%; in [6] it was 77.7%. Besides, the inhibition worked out at 58.5% in assay [7]; 68.4% in assay [8]; 64% in assay [9]; 27% in the assay filed under Homo sapiens [11]; 54.7% in the assay filed under Homo sapiens [12]; 95.1% in assay [13]. In assay [17], the inhibition worked out at 63.1%. Further, the Ki in [10] is 1300 nM; in [14], 290 nM. The ΔTm in [15] stood at 8.5 °C; in [18], 4 °C. This compound returned a Kd in assay [16] of 2650 nM.

The record behind these values is ChEMBL document CHEMBL3826919, “The discovery of novel and selective fatty acid binding protein 4 inhibitors by virtual screening and biological evaluation” (Bioorg Med Chem, 2016).
